According to patent EP2213286A1, “N-(PHENYL OR PYRIDYL)PRENYLAMINE DERIVATIVES FOR THE TREATMENT OF OBESITY, DIABETES AND CARDIOVASCULAR DISEASES” (Zeltia, S.A., priority 2009, dated 2010):

Tested on: adiponectin promoter
Experiment: cells
Assay type: cell-based, human
Details: for concentration at which the greatest transactivation was achieved: dose-response curve of commercial activator on the target promoter
Description: The following protocol has been followed for the purpose of analyzing the potential therapeutic activity against obesity, type 2 diabetes mellitus and atherosclerosis (ODA metabolic diseases) of the compounds 1-4: • generating cell lines which have stably integrated human promoters of key genes in the development of ODA diseases; • amplifying the human promoter sequence of the target genes starting from commercial human genomic DNA; • cloning the promoter into a suitable vector which allows knowing the transcriptional activity of the promoter sequence, using the luciferase gene as a reporter gene; • generating stable cell lines for each of the promoters cloned into the reporter vectors; • carrying out the screening test with the compounds of the invention on the stable cell lines; • suitably validating the effect obtained with a certain compound which can modify the transcriptional activity of the promoter.
The selected cell line is C2C12, corresponding to myoblasts from mouse muscle tissue.
The luciferase activity is measured according to the following protocol: • a) 50000 and 1200000 cells/well (and in duplicate) are seeded in a P24 plate. • b) After approximately 24 hours, the medium is removed from the cells and each well is washed with PBS 1x (because DMEM interferes in the measurement of the activity of the reporter gene) • c) 100 µl of luciferase developing reagent are added in each cell (Bright-GloTM Luciferase Assay system- Promega). This reagent carries the reporter gene substrate and luminescence is generated as the product of the enzymatic reaction. The cells which have acquired the reporter gene, and therefore the target promoter, will be luminescent upon being in the presence of said substrate. To record the measurement of luciferase activity, the plate is shaken for 30 seconds right after adding the developing reagent and after 2 minutes, the volume is collected and transferred to a 96-well plate (P96), which can be read in an illuminometer. • d) The suitable luminescence program is selected, such that the reading lasts 5 seconds per well, and the arbitrary luminescence units are recorded for each obtained clone or, in other words, for each stable cell line.
The reaction substrate is photosensitive, therefore it is important to keep the plate in darkness from the time the reagent is added until the luciferase activity is recorded or read in each experiment. Carrying out the screening test: The clones used in the screening are: C2C12 Adipo (adiponectin promoter), C2C12 UCP3 (UCP3 promoter), C2C12 AdR1 (adiponectin receptor 1 promoter) and C2C12 Nmu (neuromedin promoter).
Before any screening experiment, the suitable number of cells for carrying out such experiments must first be provided. To that end, 2 T75 are usually seeded (with approximately 1x10^6 cells in each bottle), such that after four days, the cells have reached confluence and are ready for the screening protocol detailed below to be carried out. • 1. Day 1: 30000 cells per well are seeded in white P96 plates; these plates allow amplifying the luminescence signal and improving the reading. The cells are grown in 100 µl of hygromycin-free medium. • 2. Day 2: 24 hours after the seeding, the cells are stimulated with compounds 1-4. Compounds 1-4 are assayed in duplicate at 1, 5 and 10 µg/ml concentrations, by means of the screening method shown in the following diagram: [formula] ? In the indicated positions, the baseline transcriptional activity of the promoters to be studied is recorded in the presence of the medium in which compounds 1-4 (vehicle) are dissolved. ? In the indicated positions, the transcriptional activity of the promoters to be studied is recorded in the presence of a known commercial activator of the target promoter. […]

[1] = Mus musculus, C2C12, 48 h, read-out: activation ratio

Row | SMILES | fold induction at 1 µM [1] | fold induction at 5 µM [1] | fold induction at 10 µM [1] | fold induction at 20 µM [1] | fold induction at 50 µM [1] | fold induction at 100 µM [1] | fold induction at 200 µM [1] | concentration at which the greatest transactivation was achieved [µM] | fold induction at 0.01 µM [1] | fold induction at 15 µM [1] | fold induction at 25 µM [1] | fold induction at 400 µM [1] | fold induction at 0.5 µM [1]
1 | O=c1c(-c2ccc(O)cc2)coc2cc(O)cc(O)c12 [Genistein, genistein, reference compound] | 1.47 | 2.25 | 3.59 | 3.05 | 1.97 | 1.75 | 1.59 | 20 |  |  |  |  | 
2 | O=c1c(-c2ccc(O)cc2)coc2cc(O)ccc12 [Daidzein, daidzein, reference compound] | 1.68 | 3.03 | 3.76 | 4.04 | 4.05 | 3.71 |  | 20 |  |  |  |  | 
3 | CC(C)=CCNc1cccc(C(=O)O)c1 [Compound 2, 3-(3-methyl-but-2-enylamino)-benzoic acid] | 1.69 | 2.78 |  |  | 3.66 |  | 3.04 |  | 1.05 | 3.43 | 3.57 | 1.81 | 
4 | CN(CCOc1ccc(CC2SC(=O)NC2=O)cc1)c1ccccn1 (stereo not drawn) [Rosiglitazone, reference compound] |  |  |  |  |  |  |  | 20 |  |  |  |  | 
5 | COC(=O)c1ccnc(NCC=C(C)CCC=C(C)C)c1 [Compound 1, 2-(3,7-dimethyl-octa-2,6-dienylamino)-isonicotinic acid methyl ester] | 2.02 | 3.33 | 4.07 |  | 3.92 | 3.06 | 2.57 |  |  |  | 4.05 |  | 1.67
6 | COC(=O)c1cccc(NCC=C(C)C)c1 [Compound 3, 3-(3-methyl-but-2-enylamino)-benzoic acid methyl ester] | 1.26 | 1.98 | 1.85 |  | 2.61 | 2.34 | 1.92 |  |  |  | 2.46 |  | 1.07
7 | COC(=O)c1cccc(NCC=C(C)CCC=C(C)C)c1 [Compound 4, 3-(3,7-dimethyl-octa-2,6-dienylamino)-benzoic acid methyl ester] | 2.59 | 3.53 | 3.71 |  | 3.28 | 2.53 | 1.78 |  |  |  | 3.47 |  | 2.32
